# Source: US20240335443A1, “IMIDAZOLOPYRIDAZINE OR PYRAZOLOPYRIMIDINE COMPOUNDS AND COMPOSITIONS” (Anrui Biomedical Technology (Guangzhou) Co., Ltd., priority 2021, published 2024)
# Target: T1, N-terminal His-tagged TYK2 pseudokinase domain (Homo sapiens, UniProt P29597)
# T1 construct: the N-terminal His-tagged TYK2 pseudokinase domain; His (N); purchased Pharmaron
# Assay: TYK2 JH2 domain SPA binding assay
# Details: displacement of H3 probe (20 nM), 30 min room temperature; class symbols
# Description: TYK2 JH2 Domain Binding Assay
# After incubating at room temperature for 30 min, the inhibition was calculated by the displacement of [3H] 3 binding as determined by scintillation counting. Dose-response curves were generated to determine the concentration required to inhibit H3 probe binding by […] (IC50).
# T1 sequence (P29597 589-875 limits assumed): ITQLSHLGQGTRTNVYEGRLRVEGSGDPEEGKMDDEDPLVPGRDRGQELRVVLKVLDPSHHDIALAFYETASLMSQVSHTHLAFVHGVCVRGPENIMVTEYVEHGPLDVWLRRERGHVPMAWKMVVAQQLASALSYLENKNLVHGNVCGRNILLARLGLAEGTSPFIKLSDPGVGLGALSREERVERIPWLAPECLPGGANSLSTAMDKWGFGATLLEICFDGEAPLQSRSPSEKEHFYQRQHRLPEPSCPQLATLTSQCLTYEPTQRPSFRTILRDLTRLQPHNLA
row,IC50 [nM],Structure (SMILES)
1,10 to 100,"[2H]C([2H])([2H])Nc1cc(Nc2cccn(C3CCCC4(COC4)C3)c2=O)nn2c(C(=O)N[C@@H]3C[C@@H]3F)cnc12 (single isomer, unassigned) [Compound 75b]"
2,10 to 100,"CNc1cc(Nc2cccn(C3C[C@H]4CC[C@@H](C3)O4)c2=O)nn2c(C(=O)N[C@@H]3C[C@@H]3F)cnc12 (single isomer, unassigned) [Compound 79a]"
3,10 to 100,"CNc1cc(Nc2cccn(C3C[C@H]4CC[C@@H](C3)O4)c2=O)nn2c(C(=O)N[C@@H]3C[C@@H]3F)cnc12 (single isomer, unassigned) [Compound 79b]"
4,10 to 100,"CNc1cc(Nc2cccn([C@H]3C[C@H](OC)C3)c2=O)nn2c(C(=O)NC3CCC4CCOC43)cnc12 (single isomer, unassigned) [Compound 88a]"
5,100 to 1000,"CNc1cc(Nc2cccn([C@H]3C[C@H](OC)C3)c2=O)nn2c(C(=O)NC3CCC4CCOC43)cnc12 (single isomer, unassigned) [Compound 88b]"
6,10 to 100,"CNc1cc(Nc2cccn(C3CC(C)(OC)C3)c2=O)nn2c(C(=O)N[C@@H]3C[C@H]4CCO[C@H]43)cnc12 (single isomer, unassigned) [Compound 92a]"
7,10 to 100,"[2H]C([2H])([2H])OC1(C)CC(n2cccc(Nc3cc(NC)c4ncc(C(=O)N[C@@H]5C[C@H]6CCO[C@H]65)n4n3)c2=O)C1 (single isomer, unassigned) [Compound 93a]"
8,10 to 100,"[2H]C([2H])([2H])OC1(C)CC(n2cccc(Nc3cc(NC)c4ncc(C(=O)N[C@@H]5C[C@H]6CCO[C@H]65)n4n3)c2=O)C1 (single isomer, unassigned) [Compound 93b]"

# Further lines, the molecule ahead of its results:
row,Structure (SMILES),IC50 [nM]
1,"CNc1cc(Nc2cccc3c2OCCC3)nn2c(C(=O)NC(C)c3ncco3)cnc12 (single isomer, unassigned) [Compound 22b]",< 10
2,"CNc1cc(Nc2cccc3c2OCCC3)nc2c(C(=O)NC(C)c3ncco3)cnn12 (single isomer, unassigned) [Compound 23a]",100 to 1000
3,"CNc1cc(Nc2cccc3c2OCCC3)nc2c(C(=O)NC(C)c3ncco3)cnn12 (single isomer, unassigned) [Compound 23b]",< 10
4,"CNc1cc(Nc2cccn(-c3ccccn3)c2=O)nc2c(C(=O)NC(C)c3ncco3)cnn12 (single isomer, unassigned) [Compound 36b]",10 to 100
5,"CNc1cc(Nc2cccn(-c3ccn(C)n3)c2=O)nn2c(C(=O)NC(C)c3ncco3)cnc12 (single isomer, unassigned) [Compound 49a]",10 to 100
6,"CNc1cc(Nc2cccn(-c3ccn(C)n3)c2=O)nn2c(C(=O)NC(C)c3ncco3)cnc12 (single isomer, unassigned) [Compound 49b]",> 1000
7,"CNc1cc(Nc2cccn(CC3CCCO3)c2=O)nn2c(C(=O)N[C@@H]3C[C@H]4CCO[C@H]43)cnc12 (single isomer, unassigned) [Compound 62a]",100 to 1000
8,"CNc1cc(Nc2cccn(CC3CCCO3)c2=O)nn2c(C(=O)N[C@@H]3C[C@H]4CCO[C@H]43)cnc12 (single isomer, unassigned) [Compound 62b]",10 to 100
9,"[2H]C([2H])([2H])Nc1cc(Nc2cccn(C3CCCC4(COC4)C3)c2=O)nn2c(C(=O)N[C@@H]3C[C@H]4CCO[C@H]43)cnc12 (single isomer, unassigned) [Compound 68a]",10 to 100
10,"[2H]C([2H])([2H])Nc1cc(Nc2cccn(C3CCCC4(COC4)C3)c2=O)nn2c(C(=O)N[C@@H]3C[C@H]4CCO[C@H]43)cnc12 (single isomer, unassigned) [Compound 68b]",10 to 100
11,"[2H]C([2H])([2H])Nc1cc(Nc2cccn(C3CCCC4(COC4)C3)c2=O)nn2c(C(=O)N[C@@H]3C[C@@H]3F)cnc12 (single isomer, unassigned) [Compound 75a]",100 to 1000

# Tested on: IL-23 induced STAT3 in HEK-Blue™ IL-23 cells
# Assay: IL-23 induced STAT3 QUANTI-Blue reporter assay in HEK-Blue IL-23 cells
# Assay type: cell-based
# Details: HEK-Blue IL-23, HEK-Blue IL-23 cells, IL-23 0.1 ng/mL, SEAP levels; class symbols; read-out: IL23 reporter assay (IC50 nM)
# Description: Biological Example 2. IL-23 Induced STAT3 QUANTI-Blue in HEK-Blue™ IL-23 Cells
# HEK-Blue™ IL-23 cells were prepared at 2×10^5 cells/ml for adding 5000 cell/well and incubate plates containing compounds+cells for 1 hour at 37° C. Prepare IL-23 (treatment at final conc. 0.1 ng/mL) during incubation and add 2 ul per well of prepared cytokine in media to appropriate wells. The plate is incubated for overnight at 37° C. The next day, QUANTI-Blue solution is prepared. 18 ul of QUANTI-Blue solution per well is added into a new 384-well clear flat bottom plate, then add 2 ul of induced and treated HEK-Blue cell supernatant from overnight plate. Incubate the plate at 37° C. for 2 hours and determine SEAP levels.
row,Structure (SMILES),IC50 [nM]
1,"CNc1cc(Nc2cccn(CC3CCCO3)c2=O)nn2c(C(=O)N[C@@H]3C[C@H]4CCO[C@H]43)cnc12 (single isomer, unassigned) [Compound 62a]",10 to 100
2,"[2H]C([2H])([2H])Nc1cc(Nc2cccn(C3CCCC4(COC4)C3)c2=O)nn2c(C(=O)N[C@@H]3C[C@H]4CCO[C@H]43)cnc12 (single isomer, unassigned) [Compound 68a]",10 to 100
3,"CNc1cc(Nc2cccn(C3C[C@H]4CC[C@@H](C3)O4)c2=O)nn2c(C(=O)N[C@@H]3C[C@@H]3F)cnc12 (single isomer, unassigned) [Compound 79a]",10 to 100
4,"CNc1cc(Nc2cccn(C3CC(C)(OC)C3)c2=O)nn2c(C(=O)N[C@@H]3C[C@H]4CCO[C@H]43)cnc12 (single isomer, unassigned) [Compound 92a]",10 to 100
5,"[2H]C([2H])([2H])OC1(C)CC(n2cccc(Nc3cc(NC)c4ncc(C(=O)N[C@@H]5C[C@H]6CCO[C@H]65)n4n3)c2=O)C1 (single isomer, unassigned) [Compound 93a]",10 to 100

# Same assay, conditions: HEK-Blue IL-23 cells, IL-23 0.1 ng/mL, SEAP levels; class symbols; read-out: IL23 reporter assay (IC50 nM)
row,Structure (SMILES),IC50 [nM]
1,"CNc1cc(Nc2cccc3c2OCCC3)nn2c(C(=O)NC(C)c3ncco3)cnc12 (single isomer, unassigned) [Compound 22b]",< 10
2,"CNc1cc(Nc2cccc3c2OCCC3)nc2c(C(=O)NC(C)c3ncco3)cnn12 (single isomer, unassigned) [Compound 23a]",≥ 1000
3,"CNc1cc(Nc2cccc3c2OCCC3)nc2c(C(=O)NC(C)c3ncco3)cnn12 (single isomer, unassigned) [Compound 23b]",10 to 100
4,"CNc1cc(Nc2cccn(-c3ccccn3)c2=O)nc2c(C(=O)NC(C)c3ncco3)cnn12 (single isomer, unassigned) [Compound 36b]",10 to 100
5,"CNc1cc(Nc2cccn(-c3ccn(C)n3)c2=O)nn2c(C(=O)NC(C)c3ncco3)cnc12 (single isomer, unassigned) [Compound 49a]",< 10
6,"CNc1cc(Nc2cccn(-c3ccn(C)n3)c2=O)nn2c(C(=O)NC(C)c3ncco3)cnc12 (single isomer, unassigned) [Compound 49b]",≥ 1000
7,"CNc1cc(Nc2cccn(CC3CCCO3)c2=O)nn2c(C(=O)N[C@@H]3C[C@H]4CCO[C@H]43)cnc12 (single isomer, unassigned) [Compound 62b]",10 to 100
8,"[2H]C([2H])([2H])Nc1cc(Nc2cccn(C3CCCC4(COC4)C3)c2=O)nn2c(C(=O)N[C@@H]3C[C@H]4CCO[C@H]43)cnc12 (single isomer, unassigned) [Compound 68b]",< 10
9,"[2H]C([2H])([2H])Nc1cc(Nc2cccn(C3CCCC4(COC4)C3)c2=O)nn2c(C(=O)N[C@@H]3C[C@@H]3F)cnc12 (single isomer, unassigned) [Compound 75a]",100 to 1000
10,"[2H]C([2H])([2H])Nc1cc(Nc2cccn(C3CCCC4(COC4)C3)c2=O)nn2c(C(=O)N[C@@H]3C[C@@H]3F)cnc12 (single isomer, unassigned) [Compound 75b]",10 to 100
11,"CNc1cc(Nc2cccn(C3C[C@H]4CC[C@@H](C3)O4)c2=O)nn2c(C(=O)N[C@@H]3C[C@@H]3F)cnc12 (single isomer, unassigned) [Compound 79b]",< 10
12,"CNc1cc(Nc2cccn([C@H]3C[C@H](OC)C3)c2=O)nn2c(C(=O)NC3CCC4CCOC43)cnc12 (single isomer, unassigned) [Compound 88a]",< 10
13,"CNc1cc(Nc2cccn([C@H]3C[C@H](OC)C3)c2=O)nn2c(C(=O)NC3CCC4CCOC43)cnc12 (single isomer, unassigned) [Compound 88b]",100 to 1000
14,"[2H]C([2H])([2H])OC1(C)CC(n2cccc(Nc3cc(NC)c4ncc(C(=O)N[C@@H]5C[C@H]6CCO[C@H]65)n4n3)c2=O)C1 (single isomer, unassigned) [Compound 93b]",10 to 100
